Experimental data published in patent publication US20240041042A1, “1-(PYRIDYL)-5-AZINYLPYRAZOLE DERIVATIVES, AND THEIR USE FOR CONTROL OF UNDESIRED PLANT GROWTH” (Bayer Aktiengesellschaft, priority 2020, published 2024).
Where two headings read alike, the source gives them in different places.

Columns and labels:
Assay type in all cases: in vivo
Zea mays (ZEAMX) = details: for Post-emergence action against ZEAMX in %: crop plant compatibility, effect vs untreated controls; for Post-emergence action against ZEAMX in % (crop plant compatibility): 20 g/ha, effect in comparison to untreated controls
Method in brief: (§1)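 Foliar application at the one-leaf stage: WP/EC formulation, 0.5% additive, 600 l/ha water. Greenhouse-grown in sandy loam. Endpoint is visual % injury relative to untreated controls at about 3 weeks.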

[1] = system: Triticum aestivum (TRZAS); details: crop plant compatibility, effect vs untreated controls
Method in brief: as §1

Brassica napus (BRSNW) = details: 20 g/ha, crop plant compatibility, in comparison to untreated controls
Method in brief: (§2)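 Crop injury rated visually in percent against untreated plants roughly 3 weeks after treatment (0% no effect, 100% plants dead). Compounds, as WP or EC with 0.5% additive in 600 l/ha water, were applied to the covering soil right after sowing; greenhouse growth. Suffixes a, b, c denote different dosages.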

[2] = system: Triticum aestivum (TRZAS); details: crop plant compatibility; for Pre-emergence action against TRZAS: 20 g/ha, effect vs untreated controls
Method in brief: as §2

Glycine max (GLXMA) = details: 20 g/ha; crop plant compatibility, effect vs untreated controls
Method in brief: as §2

Row | Structure (SMILES) | Post-emergence action against ZEAMX in % (Zea mays (ZEAMX); 80 g/ha) [%] | Post-emergence action against TRZAS in % ([1]; 20 g/ha) [%] | Post-emergence action against ZEAMX in % (crop plant compatibility) (Zea mays (ZEAMX)) [%] | Pre-emergence action against TRZAS [2] [%] | also measured
1 | COC(=O)[C@@H](C)Oc1nn(-c2ncccc2F)c(-c2ccc(F)nc2)c1I [Example I-341] | 0 |  |  |  | 
2 | COC(=O)COc1nn(-c2ncccc2F)c(-c2cncc(F)c2)c1Br [Example I-16] | 20 | 20 | 10 | 10 | Pre-emergence action against BRSNW in % (Brassica napus (BRSNW)): 10%; Pre-emergence action against TRZAS in % ([2]; pre-emergence, 80 g/ha, in comparison to untreated controls): 20%
3 | COC(=O)CNC(=O)[C@@H](C)Oc1nn(-c2ccccn2)c(-c2cncc(F)c2)c1Br [Example I-187] |  |  |  |  | Post-emergence action against TRZAS in % ([1]; 80 g/ha): 20%

Further lines, with some results ahead:

Row | Post-emergence action against ZEAMX in % (Zea mays (ZEAMX); 80 g/ha) [%] | Post-emergence action against TRZAS in % ([1]; 20 g/ha) [%] | Post-emergence action against ZEAMX in % (crop plant compatibility) (Zea mays (ZEAMX)) [%] | Pre-emergence action against TRZAS [2] [%] | Structure (SMILES) | also measured
4 | 0 |  |  |  | C[C@@H](Oc1nn(-c2ncccc2F)c(-c2ccc(F)nc2)c1Br)C(=O)O [Example I-10] | Post-emergence action against ZEAMX in % (Zea mays (ZEAMX); 320 g/ha): 20%
5 |  | 10 | 10 | 10 | O=C(O)COc1nn(-c2ncccc2F)c(-c2ccc(F)nc2)c1Br [Example I-17] | Pre-emergence action against GLXMA (Glycine max (GLXMA)): 10%
6 | 0 |  |  |  | COC(=O)COc1nn(-c2ncccc2F)c(-c2ccc(F)nc2)c1Br [Example I-07] | 
